# Measurements published in publication PMC6066528 (Frontiers in Pharmacology, 2018).
# Experiments:
# [1] = cited from earlier work
# [2] = target: recombinant human CYP3A4 supersomes (Homo sapiens, UniProt P08684)
# Description: (§1) Microsomes and supersomes were stored at −80°C until used.
# (§2) For inhibition studies, the reaction mixture was pre-incubated with the specific inhibitors (concentrations indicated in the figures) for 10 min prior to the addition of test compounds and NADPH. […] Following the incubation in the absence (control) or presence of inhibitors, the reactions were terminated at selected time-points by transferring 50 μL of the incubation mixture into a matrix autosampler vial, to which a threefold volume of ice-cold methanol (containing the internal standards) was added. […] The formation rate (pmol/min/pmol P450) in the absence and the presence of the inhibitors was calculated from the linear parts of the concentration-time curves and expressed as an absolute value or as a percentage relative to the control values.
# (§3) Chromatographic separation was performed on a Shimadzu HPLC system (Shimadzu AG, Reinach, Switzerland), coupled to a triple quadrupole tandem mass spectrometer (API4000 or API5500, AB/MDS Sciex, Concord, Canada), operating in positive electrospray ionization mode.
# (§4) The CYP activities were determined as the respective metabolite formation rates corresponding to the slope in the metabolite concentration versus time graphs.
# CYP2D6 [3] = target: T1, CYP2D6 (Homo sapiens, UniProt P10635); conditions: primary human hepatocytes; without reaching statistical significance; ref Madan et al., 2003; cited from earlier work
# CYP2D6 mRNA [4] = assay: rt-PCR quantification of CYP2D6 mRNA in HepaRG cells after rifampicin; assay type: cell-based, human
# Description: HepaRG cells were purchased from Biopredic International (Rennes, France) as undifferentiated cryopreserved cells with the associated medium. Freshly split HepaRG cells were seeded at 9000 cells/well in 96-well plates (or 0.05 × 10^6 cells/well in 24-well plates) and treated over the course of the next 4 weeks as previously described ([Aninat et al., 2006]).
# (§5) A total of 350 μL of RLT buffer (Qiagen, Hombrechtikon, Switzerland) was used to lyse the respective liver cell models, after which the lysate was transferred to Qiashredder columns and centrifuged for 2 min at 13,000 rpm. From the eluate, total RNA was extracted and purified according to the manufacturer’s instructions (Qiagen, RNeasy mini extraction kit). The concentration of the extracted RNA was measured spectrophotometrically at 260 nm on a NanoDrop 2000 (Thermo Fisher Scientific, Wohlen, Switzerland). cDNA was reverse transcribed from the isolated RNA using the Qiagen omniscript system. For quantitative rt-PCR, 10 ng cDNA was used. […] Quantification of mRNA expression levels was performed using the comparative-threshold cycle method ([Livak and Schmittgen, 2001]).
# [5] = system: primary human hepatocytes
# Description: Experimental control culture wells were treated with solvent [DMSO, 0.1% (v/v)] alone. […] The bottoms of the wells were scraped using a pipette tip, after which the contents were transferred to an autosampler vial.
# as §3, §4
# For induction experiments, metabolite formation rates were determined as described above, and the fold change versus the basal conditions was calculated as the ratio of the metabolite formation rate in wells exposed to an inducer versus formation rates in control wells.
# CYP2D6 [6] = target: T1, CYP2D6; set-up: Pooled human liver microsomes (HLM; Lot #38289); tissue Corning Life science Lot #38289; host or cells: pooled human liver microsomes; method as in Glaeser et al., 2005; conditions: enterocytes of human subjects; 600 mg rifampicin for 10 days; without reaching statistical significance; ref Glaeser et al., 2005; cited from earlier work
# CYP2D6 mRNA [7] = assay: rt-PCR quantification of CYP2D6 mRNA in primary human hepatocytes after rifampicin; assay type: cell-based; conditions: primary human hepatocytes Lot #Hu8119; rifampicin 20 μM 48 h
# Description: Primary cryopreserved human hepatocytes (Life Technologies, Lot #Hu8119 and Lot #Hu8124) were plated at 0.05 × 10^6 cells/well in collagen type-1 precoated 96-well plates (or 0.25 × 10^6 cells/well in 24-well plates) in William’s E medium supplemented with 10% FCS (v/v), 1% L-glutamine 200 mM (v/v), 1% Pen Strep (v/v), 0.1% dexamethasone 100 μM (v/v), and 0.1% insulin 100 μM (v/v), and then incubated at 37°C in the presence of 5% CO2 and 95% humid air.
# as §5
# CYP2D6 [8] = target: T1, CYP2D6; assay: Metoprolol metabolism by human liver microsomes with quinidine
# Description: as §1, §2, §3, §4
# [9] = Metoprolol metabolism by human liver microsomes without inhibitor; assay type: in vitro ADME; conditions: inhibition studies using human liver microsomes; mean ± 95%CI
# Description: as §1, §2, §3, §4
# CYP2D6 [10] = target: T1, CYP2D6; conditions: ref Johnson and Burlew, 1996; cited from earlier work
# [11] = In vivo assessment of CYP induction (Basel phenotyping cocktail before and after rifampicin); conditions: 15 healthy volunteers, rifampicin 600 mg per day for 7 days
# Description: We used the ratio between the induced and the basal state of the Cl/F of midazolam as a marker of CYP3A4 induction.
# Experiments were carried out 5 times unless stated otherwise. Means were compared with the two-tailed Student’s t-test using GraphPad Prism 6.0 (GraphPad Software, San Diego, CA, United States). Data are presented as mean ± SD unless stated otherwise. Induction levels above twofold with statistically significant differences (p < 0.05) were considered relevant.
# CYP3A4 = assay: Metoprolol metabolism by human liver microsomes with ketoconazole; assay type: in vitro ADME; conditions: pooled human liver microsomes, pH 7.4, probe metoprolol 25 μM
# Description: as §1, §2, §3, §4
# beta-blocking activity = system: beta-blocking activity; set-up: method as in Regardh et al., 1974; conditions: both active metabolites together; ref Regardh et al., 1974; cited from earlier work
# T1 sequence (P10635 whole entry): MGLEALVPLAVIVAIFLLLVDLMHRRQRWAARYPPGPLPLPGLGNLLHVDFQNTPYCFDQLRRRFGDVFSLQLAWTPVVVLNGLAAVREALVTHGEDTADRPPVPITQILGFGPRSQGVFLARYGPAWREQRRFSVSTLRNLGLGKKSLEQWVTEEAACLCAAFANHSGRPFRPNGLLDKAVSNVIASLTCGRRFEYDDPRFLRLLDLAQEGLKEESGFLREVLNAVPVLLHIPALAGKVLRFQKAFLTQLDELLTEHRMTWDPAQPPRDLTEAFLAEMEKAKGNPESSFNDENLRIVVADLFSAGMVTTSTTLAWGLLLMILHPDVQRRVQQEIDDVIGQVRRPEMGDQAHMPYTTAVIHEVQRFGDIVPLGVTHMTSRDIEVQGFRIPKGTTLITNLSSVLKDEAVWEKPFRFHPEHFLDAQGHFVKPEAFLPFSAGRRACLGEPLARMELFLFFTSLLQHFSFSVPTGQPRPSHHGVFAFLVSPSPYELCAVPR
# Chain of recombinant human CYP3A4 supersomes (P08684 whole entry): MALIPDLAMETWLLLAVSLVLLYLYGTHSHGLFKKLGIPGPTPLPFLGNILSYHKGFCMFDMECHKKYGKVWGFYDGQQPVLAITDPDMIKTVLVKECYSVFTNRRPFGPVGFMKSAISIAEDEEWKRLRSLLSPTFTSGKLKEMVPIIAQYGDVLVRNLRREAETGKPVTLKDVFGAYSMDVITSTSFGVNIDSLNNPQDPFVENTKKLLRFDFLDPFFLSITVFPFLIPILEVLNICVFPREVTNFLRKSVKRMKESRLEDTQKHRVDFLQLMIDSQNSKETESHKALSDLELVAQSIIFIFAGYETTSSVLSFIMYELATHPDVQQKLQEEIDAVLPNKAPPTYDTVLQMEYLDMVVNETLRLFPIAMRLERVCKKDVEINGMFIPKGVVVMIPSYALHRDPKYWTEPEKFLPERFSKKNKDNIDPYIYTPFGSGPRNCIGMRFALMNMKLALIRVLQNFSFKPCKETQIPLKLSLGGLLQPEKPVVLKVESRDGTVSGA
structure (smiles),measurement,setting,value
COCCc1ccc(OC[C@H](O)CNC(C)C)cc1 [R-metoprolol],clearance higher than that of S-metoprolol,"[1]; human, in vivo",40%
COc1ccc2c(c1)[C@]13CCCC[C@@H]1[C@H](C2)N(C)CC3 [dextromethorphan],conversion to dextrorphan,"[2]; rhCYP3A4 supersomes, check for CYP2D6 activity, data not shown",not quantifiable
CO[C@H]1/C=C/O[C@@]2(C)Oc3c(C)c(O)c4c(O)c(c(/C=N/N5CCN(C)CC5)c(O)c4c3C2=O)NC(=O)/C(C)=C\C=C\[C@H](C)[C@H](O)[C@@H](C)[C@@H](O)[C@@H](C)[C@H](OC(C)=O)[C@@H]1C [rifampicin],increase of the activity of dextromethorphan O-demethylation,CYP2D6 [3],1.3 factor
same,induction of CYP2D6 mRNA,"CYP2D6 mRNA [4]; HepaRG cells, rifampicin 20 μM for 48 h",not induced
same,effect on CYP2D6 mRNA,"CYP2D6 mRNA [4]; both cell models (HepaRG cells and primary human hepatocytes), 20 μM rifampicin",not affected
same,increase in O-demethylation of metoprolol,"[5]; primary human hepatocytes Lot #Hu8124, rifampicin 20 μM 48 h",1.4 factor
same,increase in production of α-OH-metoprolol,"[5]; primary human hepatocytes treated with rifampicin (Figure 3D, lot #Hu8124)",75%
same,increase of CYP2D6 protein expression,CYP2D6 [6],1.6 factor
same,CYP2D6 mRNA expression levels,CYP2D6 mRNA [7],no increase
C=C[C@H]1C[N@@]2CC[C@H]1C[C@@H]2[C@@H](O)c1ccnc2ccc(OC)cc12 [quinidine],block of formation of the phenylacetate metabolite from O-demethylated metoprolol,"CYP2D6 [8]; HLM, quinidine 1 μM",blocked completely
same,activity at 1 μM,"CYP2D6 [8]; human, pooled human liver microsomes, pH 7.4, probe metoprolol 25 μM",8%
COCCc1ccc(OCC(O)CNC(C)C)cc1 (centres unmarked) [metoprolol],"contribution of CYP3A4, 2B6, and 2C9 together to N-dealkylation of metoprolol",[9],7.6 ± 1.7%
same,"contribution of CYP3A4, 2B6, and 2C9 together to O-demethylation of metoprolol",[9],19.0 ± 2.6%
same,"contribution of CYP3A4, 2B6, and 2C9 together to α-hydroxylation of metoprolol",[9],4.0 ± 0.7%
same,bioavailability,"[1]; oral, ref Regardh and Johnsson, 1980",approximately 50%
same,part of orally administered metoprolol metabolized by CYP2D6,CYP2D6 [10],Approximately 70%
Cc1ncc2n1-c1ccc(Cl)cc1C(c1ccccc1F)=NC2 [midazolam],clearance of midazolam after rifampicin,"[11]; 2 mg midazolam, all subjects",increase
same,formation of 1′-OH-midazolam from midazolam by CYP3A4 overexpressing supersomes,[2]; recombinant enzyme,rapid
CC(=O)N1CCN(c2ccc(OCC3COC(Cn4ccnc4)(c4ccc(Cl)cc4Cl)O3)cc2)CC1 (centres unmarked) [ketoconazole],inhibition at 1 μM,CYP3A4,9.9 to 17.5%
CC(C)NCC(O)COc1ccc(CCO)cc1 (centres unmarked) [O-demethylmetoprolol],contribution to the total beta-blocking activity of metoprolol,beta-blocking activity,approximately 10%
CCC1(c2ccccc2)C(=O)NC(=O)NC1=O [phenobarbital],increase of the activity of dextromethorphan O-demethylation,CYP2D6 [3],almost identical effect
COCC(O)c1ccc(OCC(O)CNC(C)C)cc1 (stereo not drawn) [α-OH-metoprolol],contribution to the total beta-blocking activity of metoprolol,beta-blocking activity,approximately 10%
same,increase in α-OH-metoprolol formation / AUC after rifampicin,"[11]; 12.5 mg metoprolol oral, statistically not significant",9%
